The target of the first assay is human 5-HT2A receptor (Homo sapiens (Human), UniProt P28223). Nature of the assay: [125I]DOI radioligand binding assay. The note with it: 0.5 nM [125I]DOI, COS7 membranes with recombinant human 5-HT2A receptor. How it is done: For the IP accumulation assay (Example 3), HEK293 cells were transfected while for the DOI binding assay (Example 4) COS7 cells were transfected. Several protocols well known in the art can be used to transfect cells. The following protocol is representative of the transfection procedures used herein for COS7 or 293 cells.
On day one, COS-7 cells were plated onto 24 well plates, usually 1×10^5 cells/well or 2×10^5 cells/well, respectively. On day two, the cells were transfected by first mixing 0.25 μg cDNA in 50 μL serum-free DMEM/well and then 2 μL lipofectamine in 50 μL serum-free DMEM/well. The solutions (“transfection media”) were gently mixed and incubated for 15-30 minutes at room temperature. The cells were washed with 0.5 mL PBS and then 400 μL of serum free media was mixed with the transfection media and added to the cells. The cells were then incubated for 3-4 hours at 37° C./5% CO2. Then the transfection media was removed and replaced with 1 mL/well of regular growth media.
Compounds of the invention were tested for their ability to bind to a 5-HT2A receptor clone membrane preparation using a radioligand binding assay. Briefly, COS cells were transiently transfected with a pCMV expression vector containing a human 5-HT2A receptor (for the sequence of the receptor see U.S. Pat. No. 6,541,209, SEQ ID NO:24) as described in Example 2.
COS7 cells transfected with recombinant human 5-HT2A receptors were cultured for 48 hr post transfection, collected, washed with ice-cold phosphate buffered saline, pH7.4 (PBS), and then centrifuged at 48,000×g for […] at 4° C. The cell pellet was then resuspended in wash buffer containing 20 mM HEPES pH 7.4 and 0.1 mM EDTA, homogenized on ice using a Brinkman polytron, and recentrifuged at 48,000×g for 20 min. at 4° C. The resultant pellet was then resuspended in 20 mM HEPES, pH 7.4, homogenized on ice, and centrifuged (48,000×g for 20 min at 4° C.). Crude membrane pellets were stored at −80° C. until used for radioligand binding assays.
Radioligand binding assays for human 5-HT2A receptor was conducted using the 5-HT2 agonist [^125I]DOI as radioligand. To define nonspecific binding, 10 μM DOI was used for all assays. For competitive binding studies, 0.5 nM [^125I]DOI was used and compounds were assayed over a range of 0.01 nM to 10 μM. Assays were conducted in a total volume of 200 μl in 96-well Perkin Elmer GF/C filter plates in assay buffer (50 mM Tris-HCl, pH 7.4, 0.5 mM EDTA, 5 mM MgCl2, and 10 μM pargyline). […] Plates were then dried at room temperature and counted in a Wallac microBeta scintillation counter.
Usually IC50 stands for the concentration needed to halve the response being measured. Turning to `COCCNCCOc1ccc(NC(=O)c2cccc(C(F)(F)F)c2)cc1-c1c(Cl)cnn1C` [Compound 15, N-{3-(4-Chloro-2-methyl-2H-pyrazol-3-yl)-4-[2-(2-methoxy-ethylamino)-ethoxy]-phenyl}-3-trifluoromethyl-benzamide], the IC50 amounted to 0.082 nM.

Consider `COCCNC(=O)COc1ccc(NC(=O)c2cccc(C(F)(F)F)c2)cc1-c1c(Cl)cnn1C` [Compound 50, N-{3-(4-Chloro-2-methyl-2H-pyrazol-3-yl)-4-[(2-methoxy-ethylcarbamoyl)-methoxy]-phenyl}-3-trifluoromethyl-benzamide], for which the 50% inhibitory concentration (IC50) came out at 52 nM.

For `COCCOc1ccc(NC(=O)c2cccc(C(F)(F)F)c2)cc1-c1ccnn1C` [Compound 52, N-[4-(2-Methoxy-ethoxy)-3-(2-methyl-2H-pyrazol-3-yl)-phenyl]-3-trifluoromethyl-benzamide], the IC50 is 4.4 nM.

Consider `COc1cccc(C(=O)Nc2ccc(OCCO)c(-c3c(Cl)cnn3C)c2)c1` [Compound 68, N-[3-(4-Chloro-2-methyl-2H-pyrazol-3-yl)-4-(2-hydroxy-ethoxy)-phenyl]-3-methoxy-benzamide], for which the 50% inhibitory concentration (IC50) amounted to 0.51 nM.

For another assay, the system named is diabetic rats.
Experiment: not given
The note with it: range stated for all three drugs; cited from earlier work.
On to `O=CN1CCC(C(=O)NCCN2CCC(=C3c4ccccc4C=Cc4ccccc43)CC2)CC1` [AT-1015], for which the “correction of a 19.8% sciatic motor conduction deficit” value was 82.6-99.7%.

As to `Cc1nc2sccn2c(=O)c1CCN1CCC(=C(c2ccc(F)cc2)c2ccc(F)cc2)CC1` [ritanserin], the “correction of a 19.8% sciatic motor conduction deficit” value was 82.6-99.7%.

Regarding `COc1cccc(CCc2ccccc2OCC(CN(C)C)OC(=O)CCC(=O)O)c1` (stereo not shown) [sarpogrelate], the “correction of a 19.8% sciatic motor conduction deficit” value was 82.6-99.7%.

(Values after patent US8680119B2, “Ethers, secondary amines and derivatives thereof as modulators of the 5-HT2A serotonin receptor useful for the treatment of disorders related thereto” (Arena Pharmaceuticals, Inc., priority 2006, dated 2014).)
